Holding throughout (format): cell-based
One test deals with A549 cells. As to the kind of experiment: Cell viability (CellTiter-Glo ATP content) in A549 cells. The following applies: Homo sapiens, A549, 72 h, 72 hours treatment, cell survival by CellTiter-Glo, 2% fetal bovine serum. An outline of the steps:
(§1)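 Cells plated at 5,000 per well in antibiotic-free RPMI with 2% FBS, treated next day in triplicate with increasing compound doses (final DMSO 0.5%) for 72 hours. Viability read as ATP content by CellTiter-Glo luminescence; percent survival relative to vehicle control set as 100%.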
On the technique in general: ATP-based viability assays read luminescence as a measure of living cells.

For the next test, the system named is LOX cells. As to the kind of experiment: Cell viability (CellTiter-Glo ATP content) in LOX cells. The following applies: LOX, 72 h, 72 hours treatment, cell survival by CellTiter-Glo, 2% fetal bovine serum. An outline of the steps: as §1
The next test relates to MelJuSo cells. As to the kind of experiment: Cell viability (CellTiter-Glo ATP content) in MelJuSo cells. The following applies: Homo sapiens, MEL-JUSO, 72 hours treatment, cell survival by CellTiter-Glo, 2% fetal bovine serum. An outline of the steps: as §1

SMILES strings stand for the structures.

Consider 24 compounds from patent US12227482B2, “Compounds and compositions for the treatment of cancer” (The Regents of the University of California, priority 2016, dated 2025).

For the compound `CCCCC1C(c2ccc(F)cc2)=NN(c2ccc(F)cc2F)C1(C)C(=O)NCC(=O)O` (stereo not drawn) [Compound 82, 2-(4-butyl-1-(2,4-difluorophenyl)-3-(4-fluorophenyl)-5-methyl-4,5-dihydro-1H-pyrazole-5-carboxamido)acetic acid], the IC50 in the test with A549 cells, in the test on LOX cells and in the test on MelJuSo cells was greater than 2 µM in each case.

In the case of `CCCCC1C(c2ccc(F)cc2)=NN(c2ccccc2)C1(C)C(=O)NCCCCCO` (stereo not drawn) [Compound 33, 4-butyl-3-(4-fluorophenyl)-N-(5-hydroxypentyl)-5-methyl-1-phenyl-4,5-dihydro-1H-pyrazole-5-carboxamide], the IC50 – broadly, the concentration that gives 50% inhibition – in the test with A549 cells was greater than 2 µM; with LOX cells, 1 to 2 µM; with MelJuSo cells it was 0.5 to 1 µM.

Consider `CC(C)(CO)CCCNC(=O)C1(C)C(c2ccc(Cl)s2)C(c2ccc(F)cc2)=NN1c1ccc(F)cc1F` (stereo not drawn) [Compound 101, 4-(5-chlorothiophen-2-yl)-1-(2,4-difluorophenyl)-3-(4-fluorophenyl)-N-(5-hydroxy-4,4-dimethylpentyl)-5-methyl-4,5-dihydro-1H-pyrazole-5-carboxamide], for which the half-maximal inhibitory concentration (IC50) was greater than 2 µM in the test with A549 cells, greater than 2 µM in the test on LOX cells and 0.5 to 1 µM in the test on MelJuSo cells.

As to `CCCCC1C(c2ccc(F)cc2)=NN(c2ccccc2)C1(C)C(=O)NCCS(C)(=O)=O` (stereo not drawn) [Compound 79, 4-butyl-3-(4-fluorophenyl)-5-methyl-N-(2-(methylsulfonyl)ethyl)-1-phenyl-4,5-dihydro-1H-pyrazole-5-carboxamide], the IC50 with A549 cells, in the test on LOX cells and in the test on MelJuSo cells was greater than 2 µM in each case.

Regarding `CC(C)(CO)CCCNC(=O)C1(C)C(c2ccc(F)cc2F)=NN(c2ccc(F)cc2F)C1c1ccc(Cl)o1` (stereo not drawn) [Compound 136, 5-(5-chlorofuran-2-yl)-1,3-bis(2,4-difluorophenyl)-N-(5-hydroxy-4,4-dimethylpentyl)-4-methyl-4,5-dihydro-1H-pyrazole-4-carboxamide], the IC50 in the test on A549 cells was greater than 2 µM; with LOX cells, greater than 2 µM; with MelJuSo cells, 1 to 2 µM.

For `CN(C)CCNC(=O)CNC(=O)C1(C)C(c2cccs2)C(c2ccc(F)cc2)=NN1c1ccc(F)cc1F` (stereo not drawn) [Compound 107, 1-(2,4-difluorophenyl)-N-(2-(2-(dimethylamino)ethylamino)-2-oxoethyl)-3-(4-fluorophenyl)-5-methyl-4-(thiophen-2-yl)-4,5-dihydro-1H-pyrazole-5-carboxamide], the IC50 is greater than 2 µM with A549 cells, greater than 2 µM in the test on LOX cells and 1 to 2 µM in the test on MelJuSo cells.

Take `CCCCC1C(c2ccc(F)cc2F)=NN(c2ccccc2)C1(C)C(=O)NCCCC(C)(C)CO` (stereo not drawn) [Compound 56, 4-butyl-3-(2,4-difluorophenyl)-N-(5-hydroxy-4,4-dimethylpentyl)-5-methyl-1-phenyl-4,5-dihydro-1H-pyrazole-5-carboxamide]: the half-inhibitory concentration (IC50) was greater than 2 µM with A549 cells, 1 to 2 µM in the test on LOX cells and 0.5 to 1 µM with MelJuSo cells.

In the case of `CCCCC1C(c2ccc(F)cc2)=NN(c2ccc(F)cc2F)C1(C)C(=O)NCCC(=O)OC` (stereo not drawn) [Compound 31, methyl 3-(4-butyl-1-(2,4-difluorophenyl)-3-(4-fluorophenyl)-5-methyl-4,5-dihydro-1H-pyrazole-5-carboxamido)propanoate], the IC50 in the test with A549 cells lay within 1 to 2 µM; with LOX cells, 1 to 2 µM; in the test on MelJuSo cells it was 0.5 to 1 µM.

Turning to `CCCCC1C(c2ccc(F)cc2)=NN(c2ccccc2)C1(C)C(=O)NCc1ccccc1OC` (stereo not drawn) [Compound 44, 4-butyl-3-(4-fluorophenyl)-N-(2-methoxybenzyl)-5-methyl-1-phenyl-4,5-dihydro-1H-pyrazole-5-carboxamide], the IC50 in the test with A549 cells, with LOX cells and with MelJuSo cells was greater than 2 µM in each case.

In the case of `COC(=O)CNC(=O)C1(C)C(c2ccsc2)C(c2ccc(F)cc2F)=NN1c1ccc(F)cc1F` (stereo not drawn) [Compound 119, methyl 2-(1,3-bis(2,4-difluorophenyl)-5-methyl-4-(thiophen-3-yl)-4,5-dihydro-1H-pyrazole-5-carboxamido)acetate], the IC50 in the test with A549 cells is 0.5 to 1 µM; in the test on LOX cells, 0.25 to 0.5 µM; in the test on MelJuSo cells it was less than 0.25 µM.

Take `CCCCC1C(c2ccc(F)cc2)=NN(c2ccccc2)C1(C)C(=O)NCc1ccc(N(C)C)cc1` (stereo not drawn) [Compound 48, 4-butyl-N-(4-(dimethylamino)benzyl)-3-(4-fluorophenyl)-5-methyl-1-phenyl-4,5-dihydro-1H-pyrazole-5-carboxamide]: the IC50 in the test on A549 cells, with LOX cells and in the test on MelJuSo cells was greater than 2 µM throughout.

Regarding `CCCCC1C(c2ccc(F)cc2)=NN(c2ccc(F)cc2F)C1(C)C(=O)NCCCOC` (stereo not drawn) [Compound 5, 4-butyl-1-(2,4-difluorophenyl)-3-(4-fluorophenyl)-N-(3-methoxypropyl)-5-methyl-4,5-dihydro-1H-pyrazole-5-carboxamide], the IC50 is 1 to 2 µM in the test with A549 cells, 1 to 2 µM in the test with LOX cells and 0.5 to 1 µM with MelJuSo cells.

Turning to `CCCCC1C(c2ccc(F)cc2)=NN(c2ccccc2)C1(C)C(=O)NCCCCO` (stereo not drawn) [Compound 35, 4-butyl-3-(4-fluorophenyl)-N-(4-hydroxybutyl)-5-methyl-1-phenyl-4,5-dihydro-1H-pyrazole-5-carboxamide], the IC50 in the test on A549 cells was greater than 2 µM; in the test on LOX cells it was 1 to 2 µM; in the test with MelJuSo cells, 1 to 2 µM.

For `CCCCC1C(c2ccc(F)cc2)=NN(c2ccc(F)cc2F)C1(C)C(=O)NCCCN(C)C` (stereo not drawn) [Compound 24, 4-butyl-1-(2,4-difluorophenyl)-N-(3-(dimethylamino)propyl)-3-(4-fluorophenyl)-5-methyl-4,5-dihydro-1H-pyrazole-5-carboxamide], the IC50 in the test on A549 cells, in the test on LOX cells and in the test on MelJuSo cells was greater than 2 µM each time.

On to `CCCCC1C(c2ccc(F)cc2)=NN(c2ccccc2)C1(C)C(=O)N[C@@H](C)c1ccccc1` (stereo partly drawn) [Compound 42, 4-butyl-3-(4-fluorophenyl)-5-methyl-1-phenyl-N-((S)-1-phenylethyl)-4,5-dihydro-1H-pyrazole-5-carboxamide], for which the IC50 in the test with A549 cells, in the test with LOX cells and in the test on MelJuSo cells was greater than 2 µM in each case.

Turning to `CCCCC1C(c2ccc(F)cc2)=NN(c2ccc(F)cc2F)C1(C)C(=O)NCCCCOC` (stereo not drawn) [Compound 25, 4-butyl-1-(2,4-difluorophenyl)-3-(4-fluorophenyl)-N-(4-methoxybutyl)-5-methyl-4,5-dihydro-1H-pyrazole-5-carboxamide], the IC50 with A549 cells is greater than 2 µM; with LOX cells, greater than 2 µM; in the test with MelJuSo cells, 1 to 2 µM.

On to `CCCCC1C(c2ccc(F)cc2)=NN(c2ccccc2)C1(C)C(=O)NCC(C)(C)C` (stereo not drawn) [Compound 72, 4-butyl-3-(4-fluorophenyl)-5-methyl-N-neopentyl-1-phenyl-4,5-dihydro-1H-pyrazole-5-carboxamide], for which the IC50 with A549 cells, in the test with LOX cells and in the test with MelJuSo cells was greater than 2 µM in each case.

`CCCCC1C(c2ccc(F)cc2)=NN(c2ccccc2)C1(C)C(=O)NCC(C)(C)CN(C)C` (stereo not drawn) [Compound 50, 4-butyl-N-(3-(dimethylamino)-2,2-dimethylpropyl)-3-(4-fluorophenyl)-5-methyl-1-phenyl-4,5-dihydro-1H-pyrazole-5-carboxamide]: the IC50 in the test with A549 cells, with LOX cells and in the test on MelJuSo cells was greater than 2 µM throughout.

With `COC(=O)CNC(=O)C1(C)C(c2cccs2)C(c2ccc(F)cc2)=NN1c1ccc(F)cc1F` (stereo not drawn) [Compound 103, methyl 2-(1-(2,4-difluorophenyl)-3-(4-fluorophenyl)-5-methyl-4-(thiophen-2-yl)-4,5-dihydro-1H-pyrazole-5-carboxamido)acetate], the IC50 in the test with A549 cells was 0.5 to 1 µM; with LOX cells it was 0.5 to 1 µM; with MelJuSo cells, less than 0.25 µM.

Consider `CCCCC1C(c2ccc(F)cc2)=NN(c2ccc(F)cc2)C1(C)C(=O)NCCCOC` (stereo not drawn) [Compound 14, 4-butyl-1,3-bis(4-fluorophenyl)-N-(3-methoxypropyl)-5-methyl-4,5-dihydro-1H-pyrazole-5-carboxamide], for which the IC50 in the test with A549 cells was greater than 2 µM; in the test on LOX cells it was 1 to 2 µM; in the test on MelJuSo cells, 1 to 2 µM.

As to `CCCCC1C(c2ccc(F)cc2)=NN(c2ccc(F)c(OC)c2)C1(C)C(=O)NCCCOC` (stereo not drawn) [Compound 19, 4-butyl-1-(4-fluoro-3-methoxyphenyl)-3-(4-fluorophenyl)-N-(3-methoxypropyl)-5-methyl-4,5-dihydro-1H-pyrazole-5-carboxamide], the IC50 in the test on A549 cells, in the test with LOX cells and in the test with MelJuSo cells was greater than 2 µM each time.

On to `CON(C)C(=O)CNC(=O)C1(C)C(c2cccs2)C(c2ccc(F)cc2)=NN1c1ccc(F)cc1F` (stereo not drawn) [Compound 111, 1-(2,4-difluorophenyl)-3-(4-fluorophenyl)-N-(2-(methoxy(methyl)amino)-2-oxoethyl)-5-methyl-4-(thiophen-2-yl)-4,5-dihydro-1H-pyrazole-5-carboxamide], for which the half-inhibitory concentration (IC50) with A549 cells, in the test on LOX cells and in the test on MelJuSo cells was greater than 2 µM in each case.

Take `COCCNC(=O)C1(C)C(c2cccs2)C(c2ccc(F)cc2)=NN1c1ccc(C)cc1` (stereo not drawn) [Compound 63, 3-(4-fluorophenyl)-N-(2-methoxyethyl)-5-methyl-4-(thiophen-2-yl)-1-p-tolyl-4,5-dihydro-1H-pyrazole-5-carboxamide]: the figures for the IC50 in the test with A549 cells, in the test on LOX cells and in the test with MelJuSo cells were 0.25 to 0.5 µM, less than 0.25 µM and less than 0.25 µM, respectively.

`CCCCC1C(c2ccc(F)cc2)=NN(c2ccc(F)cc2F)C1(C)C(=O)NCCCCC(C)(C)O` (stereo not drawn) [Compound 4, 4-butyl-1-(2,4-difluorophenyl)-3-(4-fluorophenyl)-N-(5-hydroxy-5-methylhexyl)-5-methyl-4,5-dihydro-1H-pyrazole-5-carboxamide]: the IC50 in the test with A549 cells, in the test on LOX cells and in the test with MelJuSo cells was 0.5 to 1 µM each time.
